Measurements from US7829662B2, “Method of treating apoptosis and compositions thereof” (Dana Farber Cancer Institute, Inc., priority 2001, dated 2010).
Entries after “also recorded” stand apart in the source; their conditions may differ. Peptide text beside a SMILES is read from it. * marks the point of attachment. Cbz = O=C(OCc1ccccc1)*; CH2F = FC*

How the values were obtained:
Wt and DKO MEFs = experiment: TEM morphology of mitochondria in cells after death stimuli; type: cell-based; settings: 12 hrs after treatment; 2 μM thapsigargin, 2 μg/ml brefeldin A, 1 μg/ml tunicamycin
Description: For apoptosis induction, MEFs were plated in 24-well plates at a density of 10^4 cells/well and grown for 24 hrs (Wei et al, 2001). Apoptosis was initiated by 2 μM thapsigargin, 2 μg/ml brefeldin A, 1 μg/ml tunicamycin or by 5 hrs of heat shock (43° C. in a humidified atmosphere of 95% air 5% CO2). Apoptosis was detected by flow cytometric detection of annexin V staining (BD Pharmingen) 24 hrs after the induction of cell death.
Wt and DKO MEFs were treated where indicated with brefeldin A or heat shock. After 12 hrs cells were fixed and imaged. Bar, 200 nm. The insets show 2× magnification of the boxed mitochondria. […] Wt and DKO MEFs were treated with the indicated death stimulus and after 12 hrs cells were fixed, stained and TEMs collected. Morphometric analysis was conducted.

mitochondria [1] = experiment: Cytochrome c release from isolated liver mitochondria (immunoblot densitometry or ELISA); type: biochemical, Balb/cJ mice
Description: Mitochondria were isolated from liver of Balb/cJ mice by standard differential centrifugation, and resuspended in isolation buffer (IB) (0.2 M sucrose, 10 mM Tris-MOPS pH 7.4, 0.1 mM EGTA-Tris, 0.1% delipidated BSA).
At the indicated time, mitochondria were pelleted by centrifugation at 12000×g at 4° C. for 3 min, and resuspended in the same volume of EB. Cytochrome c release was determined either by densitometry (Stratagene Eagle Eye II, BioRad) of immunoblots, or by rat/mouse specific ELISA performed on mitochondrial pellet and supernatant diluted 1:20 in PBS containing 0.5% Triton X-100 (R&D systems, MN). Cytochrome c is reported as the percentage of the supernatant over the total (pellet plus supernatant).
For SDS-PAGE, 20 μg of mitochondrial protein was loaded in each lane of a 12% NuPAGE (NoVex, CA) gel. After separation, proteins were transferred onto PVDF membranes (Immobilon-P, Millipore, Calif.) and membranes were probed as indicated with the following primary antibodies: anti-cytochrome c (Pharmingen, CA, 1:1000); anti-BID (1:1500); anti-BAK (Calbiochem, CA, 1:1000). HRPO-conjugated secondary antibodies (CalTag, CA, 1:2000) were visualized by chemiluminescence (Amersham, N.J.).
Mitochondria were incubated with increasing amounts of digitonin to assess how much cytochrome c was released from IMS by the selective solubilization of the OM (Hoppel and Cooper, 107, 367-375, 1968). To monitor interaction of digitonin with the […], uncoupled respiration in the presence of excess exogenous cytochrome c was assessed. Specifically 0.5 mg/ml mitochondria was incubated in EB with the indicated concentration of digitonin. After 5 minutes, mitochondria were centrifuged and cytochrome c content in the resulting pellet and supernatant were determined as described. Uncoupled JO2, uncoupled respiratory rate was recorded in parallel experiments. After 5 minutes of incubation with the indicated concentration of digitonin, mitochondria were treated with 400 pmol CCCP×mg protein-1 in the presence of 10 nmol cytochrome c×mg protein.

mitochondria [2] = experiment: Adenylate kinase (AK) release from mitochondria; type: biochemical, Balb/cJ mice; settings: preincubation: 800 pmol CsA × mg protein^−1 or 0.1 μg × mg protein^−1 anti-BAK Ab
Description: AK release was determined similar to that described for cytochrome c release. AK was quantified measuring its enzymatic activity by assessing the rate of NADH oxidation at 366 nm using a Beckman DU-10 spectrophotometer. 10 μl of the supernatant or pellet were added to a reaction mixture containing 0.5 mM phosphoenolpyruvate, ATP, AMP, 1 mM NADH, and 60 units of pyruvate kinase and lactate dehydrogenase, in 130 mM KCl, 6 mM MgSO4 and 100 mM Tris-Cl. Final volume 0.1 ml, pH 7.4, 25° C. AK release is reported (as described for cytochrome c) as the percentage of the supernatant over the total (pellet plus supernatant).

[3] = system: calcein loaded mitochondria; experiment: Release of matrix-entrapped calcein (transient PTP opening); type: biochemical, Balb/cJ mice; settings: preincubated 3 min with 200 nmol/mg suramin; 320 pmol/mg tBID, 30 min
Description: To assess calcein release, mitochondria suspended in IB without BSA were loaded with 10 nmol×mg protein^−1 calcein-AM (Molecular Probes, Eugene, Oreg.) for 20 mins at room temperature in the dark. Following two washes in IB, the calcein loaded mitochondria were resuspended in IB at a final concentration of 10 mg/ml. 0.5 mg/ml calcein loaded mitochondria were incubated in EB and treated as described. After the indicated time, mitochondria were pelleted. Calcein was measured in an LS-50B spectrofluorimeter (Perkin Elmer) with excitation and emission wavelengths set at 488±2.5 nm and 542±2.5 nm, respectively.
After 30 min mitochondria were spun at 14000 g for 3 min at 4 C and the calcein content in the pellet and in the supernatant was determined. […] To determine if a BID α6 mutation variant, BID α6 mutein (SEQ ID NO:7), would inhibit cytochrome c release, His-tag p22 wt BID and the BID α6 mutein were expressed, purified on a Ni^2+ column, and cleaved with caspase 8.
Mitochondria were loaded with calcein and treated with 10 μM BID α6 14mer. Where noted, mitochondria were pretreated with 1 μM CsA. At the indicated time, mitochondria were pelleted by centrifugation and calcein in the pellet and in the supernatant was determined.

wt mitochondria = experiment: Cytochrome b5-dependent NADH oxidation assay; type: biochemical, Balb/cJ mice
Description: (d), mitochondria were preincubated for 2 min with 800 pmol CsA×mg protein^−1. (a), no additions. After 15 min, respiratory chain inhibitors were added and after another 2 minutes NADH fluorescence reading started. Arrow, 20 nmol NADH×mg protein^−1. In (e), 200 nmol mersalyl×mg protein was added 1 min before NADH.
In the cytochrome b5-dependent NADH oxidation assay, 1 mg/ml mitochondria were incubated in EB and treated as indicated. 400 pmol CCCP, 2 nmol rotenone and 1 nmol antimycin A×mg protein^−1 were added after the time indicated and the reaction transferred to a cuvette. After 2 min, 10 μM NADH was added and its oxidation monitored as the decrease in NADH fluorescence in a LS50B spectrofluorimeter (Perkin Elmer) set with λex=366 nm and λem=455 nm, with 5 nm slits.

C/C=C(/C)C(=O)O[C@H]1C(C)=C2[C@H]([C@@H]1OC(=O)CCCCCCC)[C@@](C)(OC(C)=O)C[C@H](OC(=O)CCC)[C@@]1(O)[C@H]2OC(=O)[C@@]1(C)O [thapsigargin]
mitochondrial morphology in cells (Wt and DKO MEFs): frequent mitochondria with Class II morphology

C[C@H]1CCC/C=C/[C@@H]2C[C@H](O)C[C@H]2[C@H](O)/C=C/C(=O)O1 [brefeldin A]
mitochondrial morphology in cells (Wt and DKO MEFs): frequent mitochondria with Class II morphology

tunicamycin
mitochondrial morphology in cells (Wt and DKO MEFs): frequent mitochondria with Class II morphology

COC(=O)C[C@H](NC(=O)[C@H](C)NC(=O)[C@@H](NC(=O)OCc1ccccc1)C(C)C)C(=O)CF [zVAD-fmk] (Cbz-Val-Ala-Asp(OMe)-CH2F)
effect on tBID induced cytochrome c release (mitochondria [1]; preincubation: 800 pmol CsA × mg protein^−1 or 0.1 μg × mg protein^−1 anti-BAK Ab): Neither anti-BCL-XL antibody nor the broad specificity caspase inhibitor zVAD-fmk had any effect | effect on tBID induced AK release (mitochondria [2]): Neither anti-BCL-XL antibody nor the broad specificity caspase inhibitor zVAD-fmk had any effect

Cc1ccc(C(=O)Nc2ccc(S(=O)(=O)O)c3cc(S(=O)(=O)O)cc(S(=O)(=O)O)c23)cc1NC(=O)c1cccc(NC(=O)Nc2cccc(C(=O)Nc3cc(C(=O)Nc4ccc(S(=O)(=O)O)c5cc(S(=O)(=O)O)cc(S(=O)(=O)O)c45)ccc3C)c2)c1 [suramin]
effect on tBID-induced calcein release (transient permeability transition) [3]: blocked tBID-induced transient permeability transition; also recorded: specifically inhibits calcein release induced by tBID

COC(CNC(=O)c1ccccc1OCC(=O)O)[CH2][Hg][OH] (centres unmarked) [mersalyl]
effect on increases in NADH oxidation (wt mitochondria; 200 nmol mersalyl × mg protein added 1 min before NADH): totally inhibited

NH2-XMLXXXXLLAAAVA-COOH [BID α6 mutein, BID α6 mutation variant where two lysine residues were changed to alanine residues; p7/p15 caspase cleaved]
cytochrome c released from mitochondria (mitochondria [1]; 1.6 pmol p7/p15 caspase cleaved BID × mg protein^−1): ~20% | cytochrome c release from mitochondria (mitochondria [1]; 1.6 pmol p7/p15 caspase cleaved BID × mg protein^−1, compared with wt p7/p15 BID): impaired release of cytochrome c; also recorded: does not completely release cytochrome c | cytochrome c mobilization (cytochrome b5-dependent NADH oxidation) (wt mitochondria; BID α6 mutein compared to wt): cytochrome c had not been mobilized; also recorded: fails to mobilize cytochrome c

B1: myristoylated p7/p15 BID complex: Wt p22 BID cleaved with recombinant caspase 8 into the active p7/p15 BID complex (protein)
p7: MDSEVSNGSGLGAKHITDLLVFGFLQSSGCTRQELEVLGRELPVQAYWEADLEDELQTD
p15: GSQASRSFNQGRIEPDSESQEEIIHNIARHLAQIGDEMDHNIQPTLVRQLAAQFMNGSLSEEDKRNCLAKALDEVKTAFPRDMENDKAMLIMTMLLAKKVASHAPSLLRDVFHTTVNFINQNLFSYVRNLVRNEMD
modifications: left off: small tags and cut ends
cytochrome c release from mitochondria (mitochondria [1]; 0.32 pmol × mg protein^−1): Complete cytochrome c release
